Reference: patent US5952328A, “Benzothiazo and related heterocyclic group-containing cysteine and serine protease inhibitors” (Cephalon, Inc., priority 1997, dated 1999)

Each compound was assayed against T1, Calpain I (Homo sapiens, UniProt P07384) (assay: Inhibition of calpain I activity (Succ-Leu-Tyr-MNA substrate hydrolysis, fluorescence)). Details: Table II; calpain I, 0.2 mM Succ-Leu-Tyr-MNA, pH 7.5; * mixture of diastereomers, a,b single diastereomers; read-out: IC50.
T1 construct: made in house
T1 sequence (P07384 1-714): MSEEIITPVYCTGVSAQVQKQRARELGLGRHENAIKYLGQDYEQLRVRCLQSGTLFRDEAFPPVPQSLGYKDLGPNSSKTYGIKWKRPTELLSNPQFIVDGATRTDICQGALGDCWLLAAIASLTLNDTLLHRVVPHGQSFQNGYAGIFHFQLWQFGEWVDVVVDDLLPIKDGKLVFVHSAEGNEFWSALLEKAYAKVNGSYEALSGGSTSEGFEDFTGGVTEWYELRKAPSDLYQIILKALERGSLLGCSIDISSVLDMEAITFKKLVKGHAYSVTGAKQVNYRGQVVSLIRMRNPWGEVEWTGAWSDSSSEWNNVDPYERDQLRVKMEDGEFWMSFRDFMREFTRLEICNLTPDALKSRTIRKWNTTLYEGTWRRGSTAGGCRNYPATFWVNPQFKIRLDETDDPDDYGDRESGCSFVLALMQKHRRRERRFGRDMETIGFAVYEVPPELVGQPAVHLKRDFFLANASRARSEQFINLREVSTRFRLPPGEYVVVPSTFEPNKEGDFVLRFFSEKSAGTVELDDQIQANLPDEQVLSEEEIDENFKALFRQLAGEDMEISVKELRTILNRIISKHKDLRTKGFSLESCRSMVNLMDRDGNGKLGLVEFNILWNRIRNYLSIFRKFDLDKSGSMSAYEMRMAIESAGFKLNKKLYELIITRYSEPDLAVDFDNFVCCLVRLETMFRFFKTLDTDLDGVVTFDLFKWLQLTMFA
T1 sequence (P04632 1-268 partner): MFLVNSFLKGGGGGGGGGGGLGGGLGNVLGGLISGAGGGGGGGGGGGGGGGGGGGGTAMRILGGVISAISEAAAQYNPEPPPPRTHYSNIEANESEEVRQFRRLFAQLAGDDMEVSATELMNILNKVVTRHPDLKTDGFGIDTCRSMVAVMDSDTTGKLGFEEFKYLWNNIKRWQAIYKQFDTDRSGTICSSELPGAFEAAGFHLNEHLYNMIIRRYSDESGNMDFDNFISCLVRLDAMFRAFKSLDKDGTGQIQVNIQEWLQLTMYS
Type: biochemical
Experimental: To evaluate inhibitory activity, stock solutions (40 times concentrated) of each compound to be tested were prepared in 100% anhydrous DMSO and […] of each inhibitor preparation were aliquoted into each of three wells of a 96-well plate. Calpain I, prepared by a modification of the method of W. J. Lee et al. (Biochem. […] To start the reaction, […] of 50 mM CaCl2 in assay buffer was added to each of the wells of the plate, excepting three, which were used as background signal baseline controls. Substrate hydrolysis was monitored every 5 minutes for a total of 30 minutes using a Fluoroskan II fluorescence plate reader. […] Inhibition of calpain I activity was calculated as the percent decrease in the rate of substrate hydrolysis in the presence of inhibitor relative to the rate in its absence. Comparison between the inhibited and control rates was made within the linear range for substrate hydrolysis. For screening, compounds were tested at […]. […] The results were plotted as percent inhibition versus log inhibitor concentration, and the IC50 was calculated from linear regression of the data.

| IC50 [nM] | SMILES |
| --- | --- |
| ~1000 | CCNC(=O)C(=O)[C@H](Cc1ccccc1)NC(=O)C1Cc2cc(Cl)ccc2S(=O)(=O)N1C (stereo partly drawn) [Cpd 14A, N-Ethyl-3-(6-chloro-3,4-dihydro-2-methyl-2H-1,2-benzothiazine-3-carboxamido)-2-oxo-3-(S)-benzylpropanamide 1,1-dioxide] |

Same assay, conditions: Table III; calpain I, 0.2 mM Succ-Leu-Tyr-MNA, pH 7.5; * mixture of diastereomers, a,b single diastereomers; read-out: IC50

| IC50 [nM] | SMILES |
| --- | --- |
| 35 | CCN1C(C(=O)N[C@@H](Cc2ccccc2)C(=O)C(=O)NCCCNS(=O)(=O)c2ccccc2)Cc2cc3c(cc2S1(=O)=O)OCCO3 (stereo partly drawn) [Cpd 14AA, 3-((3,4-Dihydro-6,7-ethylenedioxy-2-ethyl-2H-1,2-benzothiazine-3-carbonyl)amino)-3-(S)-benzyl-2-oxo-N-(3-(benzenesulfonylamino)propyl)propanamide 1,1-dioxide] |
| 29 | CCN1C(C(=O)N[C@@H](Cc2ccccc2)C(=O)C(=O)NCCNS(=O)(=O)c2ccc(F)cc2)Cc2cc3c(cc2S1(=O)=O)OCCO3 (stereo partly drawn) [Cpd 14AC, 3-((3,4-Dihydro-6,7-ethylenedioxy-2-ethyl-2H-1,2-benzothiazine-3-carbonyl)amino)-3-(S)-benzyl-2-oxo-N-(2-(4-fluorobenzenesulfonylamino)ethyl)propanamide 1,1-dioxide] |
| ~200 | CCCCNC(=O)C(=O)[C@H](Cc1ccccc1)NC(=O)C1Cc2cc3c(cc2S(=O)(=O)N1)OCCO3 (stereo partly drawn) [Cpd 14AD, N-Butyl-3-(3,4-Dihydro-6,7-ethylenedioxy-2H-1,2-benzothiazine-3-carboxamido)-2-oxo-3-(S)-benzylpropanamide 1,1-dioxide] |
| 76 | O=C(NCCNS(=O)(=O)c1ccccc1)C(=O)[C@H](Cc1ccccc1)NC(=O)C1Cc2cc3c(cc2S(=O)(=O)N1)OCCO3 (stereo partly drawn) [Cpd 14AE, N-(2-(Benzenesulfonylamino)ethyl)-3-(3,4-Dihydro-6,7-ethylenedioxy-2H-1,2-benzothiazine-3-carboxamido)-2-oxo-3-(S)-benzylpropanamide 1,1-dioxide] |
| 340 | CCNC(=O)C(=O)[C@H](Cc1ccccc1)NC(=O)C1Cc2cc3c(cc2S(=O)(=O)N1CC)OCCO3 (stereo partly drawn) [Cpd 14D] |
| 89 | CCN1C(C(=O)N[C@@H](Cc2ccccc2)C(=O)C(=O)NCCNS(C)(=O)=O)Cc2cc3c(cc2S1(=O)=O)OCCO3 (stereo partly drawn) [Cpd 14S] |
| 47 | CCN1C(C(=O)N[C@@H](Cc2ccccc2)C(=O)C(=O)NCCNS(=O)(=O)c2ccc([N+](=O)[O-])cc2)Cc2cc3c(cc2S1(=O)=O)OCCO3 (stereo partly drawn) [Cpd 14T, 3-((3,4-Dihydro-6,7-ethylenedioxy-2-ethyl-2H-1,2-benzothiazine-3-carbonyl)amino)-3-(S)-benzyl-2-oxo-N-(2-(4-nitrobenzenesulfonylamino)ethyl)propanamide 1,1-dioxide] |
| 50 | CCN1C(C(=O)N[C@@H](Cc2ccccc2)C(=O)C(=O)NCCCNS(=O)(=O)c2ccc([N+](=O)[O-])cc2)Cc2cc3c(cc2S1(=O)=O)OCCO3 (stereo partly drawn) [Cpd 14U, 3-((3,4-Dihydro-6,7-ethylenedioxy-2-ethyl-2H-1,2-benzothiazine-3-carbonyl)amino)-3-(S)-benzyl-2-oxo-N-(3-(4-nitrobenzenesulfonylamino)propyl)propanamide 1,1-dioxide] |
| 56 | CCN1C(C(=O)N[C@@H](Cc2ccccc2)C(=O)C(=O)NCCNS(=O)(=O)c2ccc(Cl)c(Cl)c2)Cc2cc3c(cc2S1(=O)=O)OCCO3 (stereo partly drawn) [Cpd 14V, 3-((3,4-Dihydro-6,7-ethylenedioxy-2-ethyl-2H-1,2-benzothiazine-3-carbonyl)amino)-3-(S)-benzyl-2-oxo-N-(2-(3,4-dichlorobenzenesulfonylamino)ethyl)propanamide 1,1-dioxide] |
| 56 | CCN1C(C(=O)N[C@@H](Cc2ccccc2)C(=O)C(=O)NCCCNS(=O)(=O)c2ccc(Cl)c(Cl)c2)Cc2cc3c(cc2S1(=O)=O)OCCO3 (stereo partly drawn) [Cpd 14W, 3-((3,4-Dihydro-6,7-ethylenedioxy-2-ethyl-2H-1,2-benzothiazine-3-carbonyl)amino)-3-(S)-benzyl-2-oxo-N-(3-(3,4-dichlorobenzenesulfonylamino)propyl)propanamide 1,1-dioxide] |
| 40 | CCN1C(C(=O)N[C@@H](Cc2ccccc2)C(=O)C(=O)NCCNS(=O)(=O)c2ccccc2)Cc2cc3c(cc2S1(=O)=O)OCCO3 (stereo partly drawn) [Cpd 14X, 3-((3,4-Dihydro-6,7-ethylenedioxy-2-ethyl-2H-1,2-benzothiazine-3-carbonyl)amino)-3-(S)-benzyl-2-oxo-N-(2-(benzenesulfonylamino)ethyl)propanamide 1,1-dioxide] |
| 20 | CCN1C(C(=O)N[C@@H](Cc2ccccc2)C(=O)C(=O)NCCNS(=O)(=O)c2ccc(-c3ccccn3)s2)Cc2cc3c(cc2S1(=O)=O)OCCO3 (stereo partly drawn) [Cpd 14Y] |
| 50 | CCN1C(C(=O)N[C@@H](Cc2ccccc2)C(=O)C(=O)NCCCNS(=O)(=O)c2ccc(F)cc2)Cc2cc3c(cc2S1(=O)=O)OCCO3 (stereo partly drawn) [Cpd 14Z, 3-((3,4-Dihydro-6,7-ethylenedioxy-2-ethyl-2H-1,2-benzothiazine-3-carbonyl)amino)-3-(S)-benzyl-2-oxo-N-(3-(4-fluorobenzenesulfonylamino)propyl)propanamide 1,1-dioxide] |

Same assay, conditions: Table IV; calpain I, 0.2 mM Succ-Leu-Tyr-MNA, pH 7.5; read-out: IC50

| IC50 [nM] | SMILES |
| --- | --- |
| 6 | CN1C(C(=O)N[C@H](C=O)Cc2ccccc2)=Cc2cc3c(cc2S1(=O)=O)OCCO3 [Cpd 26b, N-(6,7-Ethylenedioxy-2-methyl-2H-1,2-benzothiazine-3-carbonyl)-L-phenylalaninal 1,1-dioxide] |
| 37 | COC1=C(C(=O)N[C@H](C=O)Cc2ccccc2)N(C)S(=O)(=O)c2ccccc21 [Cpd 26d, N-(2-Methyl-4-methoxy-2H-1,2-benzothiazine-3-carbonyl)-L-phenylalaninal 1,1-dioxide] |
| 210 | CCCCNC(=O)C(=O)[C@H](Cc1ccccc1)NC(=O)C1=Cc2cc3c(cc2S(=O)(=O)N1C)OCCO3 [Cpd 27e, 3-((6,7-Ethylenedioxy-2-methyl-2H-1,2-benzothiazine-3-carbonyl)amino)-3-(S)-benzyl-2-oxo-N-butylpropanamide 1,1-dioxide] |
| 155 | CCCCNC(=O)C(=O)[C@H](Cc1ccccc1)NC(=O)C1=Cc2cc3c(cc2S(=O)(=O)N1CC)OCCO3 [Cpd 27f] |
| 900 | CCCCNC(=O)C(=O)[C@H](Cc1ccccc1)NC(=O)C1=C(OC)c2ccccc2S(=O)(=O)N1C [Cpd 27g, 3-((4-Methoxy-2-methyl-2H-1,2-benzothiazine-3-carbonyl)amino)-3-(S)-benzyl-2-oxo-N-butylpropanamide 1,1-dioxide] |
| ~10000 | CCCCNC(=O)C(=O)[C@H](Cc1ccccc1)NC(=O)C1=C(O)c2ccccc2S(=O)(=O)N1C [Cpd 27h, 3-((4-Hydroxy-2-methyl-2H-1,2-benzothiazine-3-carbonyl)amino)-3-(S)-benzyl-2-oxo-N-butylpropanamide 1,1-dioxide] |

Same assay, conditions: Table V; calpain I, 0.2 mM Succ-Leu-Tyr-MNA, pH 7.5; * mixture of diastereomers, a,b single diastereomers; read-out: IC50

| IC50 [nM] | SMILES |
| --- | --- |
| ~2000 | CCCCNC(=O)C(=O)[C@H](Cc1ccccc1)NC(=O)C1Nc2ccccc2S(=O)(=O)N1C (stereo partly drawn) [Cpd 35e, 3-((3,4-Dihydro-4H-2-methyl-2H-1,2,4-benzothiadiazine-3-carbonyl)amino)-3-(S)-benzyl-2-oxo-N-butylpropanamide 1,1-dioxide] |

Same assay, conditions: Table VI; calpain I, 0.2 mM Succ-Leu-Tyr-MNA, pH 7.5; read-out: IC50

| IC50 [nM] | SMILES |
| --- | --- |
| 83 | O=C[C@H](Cc1ccccc1)NC(=O)C1=Nc2ccccc2S(=O)(=O)N1 [Cpd 42a, N-(2H-1,2,4-Benzothiadiazine-3-carbonyl)-L-phenylalaninal 1,1-dioxide] |
| 28 | O=C[C@H](Cc1ccccc1)NC(=O)C1=Nc2cc3c(cc2S(=O)(=O)N1)OCCO3 [Cpd 42b, N-(2H-6,7-Ethylenedioxy-1,2,4-benzothiadiazine-3-carbonyl)-L-phenylalaninal1,1-dioxide] |
| ~5000 | CCCCNC(=O)C(=O)[C@H](Cc1ccccc1)NC(=O)C1=Nc2ccccc2S(=O)(=O)N1 [Cpd 42c, 3-((2H-1,2,4-Benzothiadiazine-3-carbonyl)amino)-3-(S)-benzyl-2-oxo-N-butylpropanamide 1,1-dioxide] |
